Structures can show the parent of a compound that is named as a salt.
Legend:
HCT116 [1] = conditions: 72 h
Method: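 HCT116 control and MTA1-KO (CRISPR) HCT116 cells were seeded in 384-well plates (800 cells/well), treated 16 h later with 237 metabolism-related anticancer drugs at five doses (10 uM, 2 uM, 400 nM, 80 nM, 16 nM) for 72 h, two replicates; viability by CCK8. Values are % inhibition of viability relative to untreated cells, plus fitted IC50.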

HCT116 [2] = test: viability inhibition vs untreated; higher = more cytotoxic; conditions: 72 h

| SMILES | IC50 (HCT116 [1]; genotype: MTA1-KO) | IC50 (HCT116 [1]; genotype: control) | viability inhibition (HCT116 [2]; genotype: MTA1-KO, 16 nM) | viability inhibition (HCT116 [2]; genotype: MTA1-KO, 80 nM) | viability inhibition (HCT116 [2]; genotype: MTA1-KO, 400 nM) | viability inhibition (HCT116 [2]; genotype: MTA1-KO, 2000 nM) | viability inhibition (HCT116 [2]; genotype: MTA1-KO, 10000 nM) | viability inhibition (HCT116 [2]; genotype: control, 16 nM) | viability inhibition (HCT116 [2]; genotype: control, 80 nM) | viability inhibition (HCT116 [2]; genotype: control, 400 nM) | viability inhibition (HCT116 [2]; genotype: control, 2000 nM) | viability inhibition (HCT116 [2]; genotype: control, 10000 nM) |
| --- | --- | --- | --- | --- | --- | --- | --- | --- | --- | --- | --- | --- |
| CC(C)n1c(/C=C/[C@H](O)C[C@H](O)CC(=O)O)c(-c2ccc(F)cc2)c2ccccc21 (racemic) [Fluvastatin sodium salt] | 8.96 µM | > 10 µM | 12.1% | 16.7% | 12.8% | 19.3% | 60.4% | 5.71% | 10.5% | 12.1% | 38% | 32.9% |
| CO[C@H]1C[C@@H]2CC[C@@H](C)[C@@](O)(O2)C(=O)C(=O)N2CCCC[C@H]2C(=O)O[C@H]([C@H](C)C[C@@H]2CC[C@@H](OCCO)[C@H](OC)C2)CC(=O)[C@H](C)/C=C(\C)[C@@H](O)[C@@H](OC)C(=O)[C@H](C)C[C@H](C)/C=C/C=C/C=C/1C [Everolimus] | > 10 µM | > 10 µM | -19% | -24.2% | -24.2% | -22.2% | -6.06% | 5.54% | 0.73% | 1.76% | 3.41% | 25.7% |
| N[C@@H](CSCCB(O)O)C(=O)O [BEC HCl] | 8.12 µM | > 10 µM | 7.68% | -6.82% | -3.32% | 5.74% | 56.8% | -17.3% | -19% | -3.82% | -14% | -7.11% |
| CNC(=O)c1cccc(-c2ccc3c(N4CCOC[C@@H]4C)nc(N4CCOC[C@@H]4C)nc3n2)c1 [Vistusertib] | 0.189 µM | 0.319 µM | 16.2% | 29.8% | 63.1% | 83.3% | 76.2% | -6.57% | -15% | 45.6% | 74.4% | 69.9% |
| c1ccc2c(CCNc3ccc(Nc4ccncc4)cc3)c[nH]c2c1 [Serdemetan] | 1.66 µM | 2.48 µM | 10.9% | 7.55% | 13.6% | 65.6% | 107% | 10.5% | 10.9% | 5.2% | 5.93% | 85.1% |
| CCN(CC)C(=S)SSC(=S)N(CC)CC [Disulfiram] | > 10 µM | > 10 µM | -26.6% | -25.2% | -25.3% | -20.1% | -18.3% | -6.96% | -11.2% | -6.9% | -8.44% | -2.88% |
| CCCC[S+]([O-])c1sc2nc(-c3cccs3)cc(-c3ccccc3)c2c1N (stereo unspecified) | > 10 µM | > 10 µM | 13.3% | 12.3% | 5.6% | 9.12% | 41.9% | 5.17% | 3.85% | 2.26% | 4.74% | 8.23% |
| C[C@@H](C(=O)Nc1ccc(Cl)cc1)[C@H]1CC[C@@H](c2ccnc3ccc(F)cc32)CC1 [Linrodostat] | > 10 µM | > 10 µM | 1.54% | 1.21% | 3.39% | 14.8% | 44.2% | 10.9% | 21.6% | 17.7% | 28.7% | 22% |
| COc1ccc(-c2ccc3c(N4CCOCC4)nc(N4C[C@@H](C)O[C@@H](C)C4)nc3n2)cc1CO | 0.753 µM | 2.24 µM | 14.6% | 18.1% | 36.5% | 68.5% | 82.3% | 13.2% | 20.4% | 21.5% | 59.4% | 72.9% |
| COc1ccccc1OCC(O)CN1CCN(CC(=O)Nc2c(C)cccc2C)CC1 (stereo unspecified) [Ranolazine] | 6.87 µM | > 10 µM | -0.081% | 5.69% | 8.98% | 2.99% | 74.3% | -8.25% | -12.6% | -15.3% | -15% | 8.96% |
| NS(=O)(=O)c1ccc(NC(=O)Nc2ccc(F)cc2)cc1 [U104] | > 10 µM | > 10 µM | -21.7% | -21.1% | -25.6% | -26.9% | -10.5% | -3.77% | -10.5% | -6.63% | -1.16% | 4.44% |
| Cc1ccc2c(c1)C(=O)[C@]1(O)CCN(c3ccccc3)C1=N2 [(-)-Blebbistatin] | > 10 µM | > 10 µM | 2.62% | -5.47% | -2.06% | -3.88% | -5.36% | -9% | -4.56% | -13.5% | -18.9% | -8.68% |
| O=C(O)c1c[nH]c2cc(Cl)c(-c3ccc(C4(O)CCC4)cc3)cc12 | 3.94 µM | > 10 µM | -7.04% | 0.458% | -9.68% | 0.998% | 72.2% | -1.55% | -12.5% | -12.9% | -5.3% | 7.54% |
| NS(=O)(=O)c1cc2c(cc1Cl)NC(CSCc1ccccc1)=NS2(=O)=O [Benzthiazide] | > 10 µM | > 10 µM | -4.89% | -8.13% | -6.12% | -11.1% | 36.1% | -2.68% | 0.658% | -1.2% | 7.85% | 44.8% |
| C[C@H](Oc1cc(-c2cnn(C3CCNCC3)c2)cnc1N)c1c(Cl)ccc(F)c1Cl [(S)-crizotinib] | 9.42 µM | > 10 µM | -3.98% | -2.9% | -13.5% | -16.1% | 66.9% | 6.82% | -13.4% | -0.064% | -12.1% | -7.51% |
| CC[C@H](CC#N)OC(=O)N[C@@H](C)c1cccc(NC(=O)Nc2ccc(-c3cnco3)c(OC)c2)c1 [AVN944] | 0.311 µM | 0.131 µM | 5.16% | 4.61% | 58.7% | 80.9% | 93.7% | -0.119% | 29.5% | 75.2% | 92.9% | 96.3% |
| NCC(=O)Nc1ccc(-n2nc(C(F)(F)F)cc2-c2ccc3c(ccc4ccccc43)c2)cc1 | 2.57 µM | 1.5 µM | -0.655% | 3.58% | 10.6% | 45.3% | 77% | 8.04% | 10.5% | 9.27% | 67% | 74.1% |
| N#C/C(=C\c1cn(-c2ccccc2)c2ccccc12)C(=O)O [UK5099] | > 10 µM | > 10 µM | 12.9% | -2.58% | -5.75% | -0.99% | 14% | 8.77% | 3.74% | 4.2% | 20.2% | 40% |

— the supplement of paper PMC10477900
